From patent publication US20230141101A1, “PDE4 INHIBITOR COMPOUND AND MEDICAL USE THEREOF” (Suzhou Longbotai Pharmaceuticals Co., Ltd., priority 2020, published 2023)

How the values were obtained:
Assay type in all cases: biochemical
Conditions in all cases: 20 nM
[1] = target: T1, PDE4A1A (Homo sapiens, UniProt P27815); assay: PDE4 inhibitory activity assay (FAM-cAMP enzymatic reaction), PDE4A1A
T1 construct: purchased BPS 60040
Procedure, shortened: (§1)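 Inhibition rates from a fluorescence read gave IC50 values. Each enzyme (PDE4A1A, PDE4B1, PDE4D2) sat with compound for 15 min at room temperature; FAM-cAMP then started a 30 min room-temperature reaction, ended with stop solution and left 60 min more.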

[2] = target: PDE4D2 (Homo sapiens, UniProt Q08499); assay: PDE4 inhibitory activity assay (FAM-cAMP enzymatic reaction), PDE4D2
Chain of PDE4D2 (Q08499 303-809): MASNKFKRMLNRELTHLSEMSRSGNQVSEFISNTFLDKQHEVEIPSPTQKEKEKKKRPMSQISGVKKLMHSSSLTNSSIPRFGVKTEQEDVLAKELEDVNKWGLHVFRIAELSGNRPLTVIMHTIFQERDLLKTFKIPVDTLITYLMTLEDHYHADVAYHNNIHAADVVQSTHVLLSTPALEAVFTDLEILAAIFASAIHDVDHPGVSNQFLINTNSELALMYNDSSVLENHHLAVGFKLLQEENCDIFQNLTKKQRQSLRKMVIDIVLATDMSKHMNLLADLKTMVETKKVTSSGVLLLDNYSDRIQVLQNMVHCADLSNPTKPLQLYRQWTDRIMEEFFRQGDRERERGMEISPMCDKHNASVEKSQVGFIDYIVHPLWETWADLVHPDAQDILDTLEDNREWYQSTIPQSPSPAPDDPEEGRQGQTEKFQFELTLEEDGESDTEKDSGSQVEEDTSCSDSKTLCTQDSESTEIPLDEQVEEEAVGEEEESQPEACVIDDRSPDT
Procedure, shortened: as §1

[3] = target: T2, PDE4B1 (Homo sapiens, UniProt Q07343); assay: PDE4 inhibitory activity assay (FAM-cAMP enzymatic reaction), PDE4B1
T2 construct: purchased BPS 60041
T2 sequence (Q07343 whole entry): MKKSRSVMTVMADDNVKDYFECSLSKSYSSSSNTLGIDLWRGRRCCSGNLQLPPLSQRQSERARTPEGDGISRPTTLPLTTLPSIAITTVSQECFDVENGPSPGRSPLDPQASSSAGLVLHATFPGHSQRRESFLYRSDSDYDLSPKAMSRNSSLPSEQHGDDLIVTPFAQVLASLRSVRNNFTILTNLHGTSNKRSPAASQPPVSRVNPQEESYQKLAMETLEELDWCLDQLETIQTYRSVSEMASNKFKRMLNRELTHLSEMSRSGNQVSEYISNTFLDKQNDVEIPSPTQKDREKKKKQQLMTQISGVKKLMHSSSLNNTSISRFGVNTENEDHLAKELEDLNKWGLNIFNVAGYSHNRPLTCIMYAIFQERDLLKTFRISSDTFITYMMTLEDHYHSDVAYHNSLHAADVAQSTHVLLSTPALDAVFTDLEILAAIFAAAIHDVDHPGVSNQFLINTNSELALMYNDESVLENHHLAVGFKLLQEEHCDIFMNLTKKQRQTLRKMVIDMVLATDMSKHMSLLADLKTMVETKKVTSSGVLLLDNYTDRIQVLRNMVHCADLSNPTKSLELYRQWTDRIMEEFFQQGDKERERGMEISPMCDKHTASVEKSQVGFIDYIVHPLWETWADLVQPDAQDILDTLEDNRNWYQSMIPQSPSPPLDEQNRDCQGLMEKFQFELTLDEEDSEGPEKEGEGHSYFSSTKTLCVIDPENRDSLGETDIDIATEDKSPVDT
Procedure, shortened: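 Each isoform is incubated with test compound for 15 min at room temperature before FAM-cAMP substrate starts a 30-min reaction.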

T1 sequence (P27815 1-647 isoform P27815-4): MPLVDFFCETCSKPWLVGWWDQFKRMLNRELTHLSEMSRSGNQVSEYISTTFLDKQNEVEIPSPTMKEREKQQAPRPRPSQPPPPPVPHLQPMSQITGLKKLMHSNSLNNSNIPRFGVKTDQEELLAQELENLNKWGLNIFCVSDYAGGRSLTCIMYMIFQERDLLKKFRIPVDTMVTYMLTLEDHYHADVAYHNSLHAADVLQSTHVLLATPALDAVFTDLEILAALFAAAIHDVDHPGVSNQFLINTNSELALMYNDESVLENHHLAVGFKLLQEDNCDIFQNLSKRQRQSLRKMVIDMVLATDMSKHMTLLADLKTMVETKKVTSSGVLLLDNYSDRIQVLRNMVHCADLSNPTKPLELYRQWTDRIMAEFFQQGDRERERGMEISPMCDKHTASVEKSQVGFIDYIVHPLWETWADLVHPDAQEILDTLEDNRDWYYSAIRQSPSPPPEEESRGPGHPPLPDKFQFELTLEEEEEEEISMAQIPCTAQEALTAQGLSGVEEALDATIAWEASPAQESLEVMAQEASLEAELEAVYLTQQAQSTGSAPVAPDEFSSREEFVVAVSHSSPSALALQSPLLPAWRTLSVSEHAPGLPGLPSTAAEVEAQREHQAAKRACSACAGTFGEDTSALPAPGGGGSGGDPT

CCOc1nc([C@@H](CS(C)(=O)=O)n2c(=O)n(C)c3cc(-c4ccccc4OC)ccc32)ccc1OC [Ex. 144, (S)-1-(1-(6-ethoxy-5-methoxypyridin-2-yl)-2-(methylsulfonyl)ethyl)-5-(2-methoxyphenyl)-3-methyl-1H-benzo[d]imidazol-2(3H)-one]
+: PDE4 A1 inhibitory effect at 20 nM [1] | PDE4 D2 inhibitory effect at 20 nM [2] | PDE4 B1 inhibitory effect at 20 nM [3]

CCOc1nc([C@H](CS(C)(=O)=O)n2c(=O)[nH]c3cc(-c4ccccc4OC)ccc32)ccc1OC [Ex. 145, (R)-1-(1-(6-ethoxy-5-methoxypyridin-2-yl)-2-(methylsulfonyl)ethyl)-5-(2-methoxyphenyl)-1H-benzo[d]imidazol-2(3H)-one]
−: PDE4 A1 inhibitory effect at 20 nM [1] | PDE4 D2 inhibitory effect at 20 nM [2] | PDE4 B1 inhibitory effect at 20 nM [3]

CCOc1nc([C@@H](CS(C)(=O)=O)n2c(=O)[nH]c3cc(-c4ccccc4C(F)(F)F)ccc32)ccc1OC [Ex. 146, (S)-1-(1-(6-ethoxy-5-methoxypyridin-2-yl)-2-(methylsulfonyl)ethyl)-5-(2-(trifluoromethyl)phenyl)-1H-benzo[d]imidazol-2(3H)-one]
+: PDE4 A1 inhibitory effect at 20 nM [1] | PDE4 D2 inhibitory effect at 20 nM [2] | PDE4 B1 inhibitory effect at 20 nM [3]

CCOc1nc([C@@H](CS(C)(=O)=O)n2c(=O)n(C)c3cc(-c4ccccc4C(F)(F)F)ccc32)ccc1OC [Ex. 147, (S)-1-(1-(6-ethoxy-5-methoxypyridin-2-yl)-2-(methylsulfonyl)ethyl)-5-(2-(trifluoromethyl)phenyl)-3-methyl-1H-benzo[d]imidazol-2(3H)-one]
+: PDE4 A1 inhibitory effect at 20 nM [1] | PDE4 D2 inhibitory effect at 20 nM [2] | PDE4 B1 inhibitory effect at 20 nM [3]

CCOc1nc([C@@H](CS(C)(=O)=O)n2c(=O)[nH]c3cc(-c4ccccc4C4CC4)ccc32)ccc1OC [Ex. 148, (S)-5-(2-cyclopropylphenyl)-1-(1-(6-ethoxy-5-methoxypyridin-2-yl)-2-(methylsulfonyl)ethyl)-1H-benzo[d]imidazol-2(3H)-one]
+: PDE4 A1 inhibitory effect at 20 nM [1] | PDE4 D2 inhibitory effect at 20 nM [2] | PDE4 B1 inhibitory effect at 20 nM [3]

CCOc1nc([C@@H](CS(C)(=O)=O)n2c(=O)[nH]c3c(C)c(-c4ccccc4C(C)C)ccc32)ccc1OC [Ex. 149, (S)-1-(1-(6-ethoxy-5-methoxypyridin-2-yl)-2-(methylsulfonyl)ethyl)-5-(2-isopropylphenyl)-4-methyl-1H-benzo[d]imidazol-2(3H)-one]
+: PDE4 A1 inhibitory effect at 20 nM [1] | PDE4 D2 inhibitory effect at 20 nM [2] | PDE4 B1 inhibitory effect at 20 nM [3]

CCOc1nc([C@@H](CS(C)(=O)=O)n2c(=O)[nH]c3cc(-c4ccccc4CC)ccc32)ccc1OC [Ex. 150, (S)-1-(1-(6-ethoxy-5-methoxypyridin-2-yl)-2-(methylsulfonyl)ethyl)-5-(2-ethylphenyl)-1H-benzo[d]imidazol-2(3H)-one]
+: PDE4 A1 inhibitory effect at 20 nM [1] | PDE4 D2 inhibitory effect at 20 nM [2] | PDE4 B1 inhibitory effect at 20 nM [3]

CCOc1nc([C@@H](CS(C)(=O)=O)n2c(=O)n(C)c3cc(-c4ccccc4CC)ccc32)ccc1OC [Ex. 151, (S)-1-(1-(6-ethoxy-5-methoxypyridin-2-yl)-2-(methylsulfonyl)ethyl)-5-(2-ethylphenyl)-3-methyl-1H-benzo[d]imidazol-2(3H)-one]
+: PDE4 A1 inhibitory effect at 20 nM [1] | PDE4 D2 inhibitory effect at 20 nM [2] | PDE4 B1 inhibitory effect at 20 nM [3]

CCOc1nc([C@@H](CS(C)(=O)=O)n2c(=O)[nH]c3cc(-c4cccc(F)c4F)ccc32)ccc1OC [Ex. 152, (S)-5-(2,3-difluorophenyl)-1-(1-(6-ethoxy-5-methoxypyridin-2-yl)-2-(methylsulfonyl)ethyl)-1H-benzo[d]imidazol-2(3H)-one]
+: PDE4 A1 inhibitory effect at 20 nM [1] | PDE4 D2 inhibitory effect at 20 nM [2] | PDE4 B1 inhibitory effect at 20 nM [3]

CCOc1nc([C@@H](CS(C)(=O)=O)n2c(=O)n(C)c3cc(-c4cccc(F)c4F)ccc32)ccc1OC [Ex. 153, (S)-5-(2,3-difluorophenyl)-1-(1-(6-ethoxy-5-methoxypyridin-2-yl)-2-(methylsulfonyl)ethyl)-3-methyl-1H-benzo[d]imidazol-2(3H)-one]
+: PDE4 A1 inhibitory effect at 20 nM [1] | PDE4 D2 inhibitory effect at 20 nM [2] | PDE4 B1 inhibitory effect at 20 nM [3]

CCOc1nc([C@@H](CS(C)(=O)=O)n2c(=O)[nH]c3cc(-c4c(F)cccc4F)ccc32)ccc1OC [Ex. 154, (S)-5-(2,6-difluorophenyl)-1-(1-(6-ethoxy-5-methoxypyridin-2-yl)-2-(methylsulfonyl)ethyl)-1H-benzo[d]imidazol-2(3H)-one]
+: PDE4 A1 inhibitory effect at 20 nM [1] | PDE4 D2 inhibitory effect at 20 nM [2] | PDE4 B1 inhibitory effect at 20 nM [3]

CCOc1nc([C@@H](CS(C)(=O)=O)n2c(=O)n(C)c3cc(-c4c(F)cccc4F)ccc32)ccc1OC [Ex. 155, (S)-5-(2,6-difluorophenyl)-1-(1-(6-ethoxy-5-methoxypyridin-2-yl)-2-(methylsulfonyl)ethyl)-3-methyl-1H-benzo[d]imidazol-2(3H)-one]
+: PDE4 A1 inhibitory effect at 20 nM [1] | PDE4 D2 inhibitory effect at 20 nM [2] | PDE4 B1 inhibitory effect at 20 nM [3]

CCOc1nc([C@@H](CS(C)(=O)=O)n2c(=O)[nH]c3cc(-c4ccc(F)cc4F)ccc32)ccc1OC [Ex. 156, (S)-5-(2,4-difluorophenyl)-1-(1-(6-ethoxy-5-methoxypyridin-2-yl)-2-(methylsulfonyl)ethyl)-1H-benzo[d]imidazol-2(3H)-one]
+: PDE4 A1 inhibitory effect at 20 nM [1] | PDE4 D2 inhibitory effect at 20 nM [2] | PDE4 B1 inhibitory effect at 20 nM [3]

CCOc1nc([C@@H](CS(C)(=O)=O)n2c(=O)n(C)c3cc(-c4ccc(F)cc4F)ccc32)ccc1OC [Ex. 157, (S)-5-(2,4-difluorophenyl)-1-(1-(6-ethoxy-5-methoxypyridin-2-yl)-2-(methylsulfonyl)ethyl)-3-methyl-1H-benzo[d]imidazol-2(3H)-one]
+: PDE4 A1 inhibitory effect at 20 nM [1] | PDE4 D2 inhibitory effect at 20 nM [2] | PDE4 B1 inhibitory effect at 20 nM [3]

CCOc1nc([C@@H](CS(C)(=O)=O)n2c(=O)[nH]c3cc(-c4cc(F)c(F)cc4F)ccc32)ccc1OC [Ex. 158, (S)-5-(2,4,5-trifluorophenyl)-1-(1-(6-ethoxy-5-methoxypyridin-2-yl)-2-(methylsulfonyl)ethyl)-1H-benzo[d]imidazol-2(3H)-one]
+: PDE4 A1 inhibitory effect at 20 nM [1] | PDE4 D2 inhibitory effect at 20 nM [2] | PDE4 B1 inhibitory effect at 20 nM [3]

CCOc1nc([C@@H](CS(C)(=O)=O)n2c(=O)n(C)c3cc(-c4cc(F)c(F)cc4F)ccc32)ccc1OC [Ex. 159, (S)-5-(2,4,5-trifluorophenyl)-1-(1-(6-ethoxy-5-methoxypyridin-2-yl)-2-(methylsulfonyl)ethyl)-3-methyl-1H-benzo[d]imidazol-2(3H)-one]
+: PDE4 A1 inhibitory effect at 20 nM [1] | PDE4 D2 inhibitory effect at 20 nM [2] | PDE4 B1 inhibitory effect at 20 nM [3]

CCOc1nc([C@@H](CS(C)(=O)=O)n2c(=O)[nH]c3cc(-c4cc(F)ccc4F)ccc32)ccc1OC [Ex. 160, (S)-5-(2,5-difluorophenyl)-1-(1-(6-ethoxy-5-methoxypyridin-2-yl)-2-(methylsulfonyl)ethyl)-1H-benzo[d]imidazol-2(3H)-one]
+: PDE4 A1 inhibitory effect at 20 nM [1] | PDE4 D2 inhibitory effect at 20 nM [2] | PDE4 B1 inhibitory effect at 20 nM [3]

CCOc1nc([C@@H](CS(C)(=O)=O)n2c(=O)n(C)c3cc(-c4cc(F)ccc4F)ccc32)ccc1OC [Ex. 161, (S)-5-(2,5-difluorophenyl)-1-(1-(6-ethoxy-5-methoxypyridin-2-yl)-2-(methylsulfonyl)ethyl)-3-methyl-1H-benzo[d]imidazol-2(3H)-one]
+: PDE4 A1 inhibitory effect at 20 nM [1] | PDE4 D2 inhibitory effect at 20 nM [2] | PDE4 B1 inhibitory effect at 20 nM [3]

CCOc1nc([C@@H](CS(C)(=O)=O)n2c(=O)[nH]c3cc(-c4ccc(C)cc4C)ccc32)ccc1OC [Ex. 162, (S)-5-(2,4-dimethylphenyl)-1-(1-(6-ethoxy-5-methoxypyridin-2-yl)-2-(methylsulfonyl)ethyl)-1H-benzo[d]imidazol-2(3H)-one]
+: PDE4 A1 inhibitory effect at 20 nM [1] | PDE4 D2 inhibitory effect at 20 nM [2] | PDE4 B1 inhibitory effect at 20 nM [3]

CCOc1nc([C@@H](CS(C)(=O)=O)n2c(=O)n(C)c3cc(-c4ccc(C)cc4C)ccc32)ccc1OC [Ex. 163, (S)-5-(2,4-dimethylphenyl)-1-(1-(6-ethoxy-5-methoxypyridin-2-yl)-2-(methylsulfonyl)ethyl)-3-methyl-1H-benzo[d]imidazol-2(3H)-one]
+: PDE4 A1 inhibitory effect at 20 nM [1] | PDE4 D2 inhibitory effect at 20 nM [2] | PDE4 B1 inhibitory effect at 20 nM [3]

CCOc1nc([C@@H](CS(C)(=O)=O)n2c(=O)[nH]c3cc(-c4cc(C)ccc4C)ccc32)ccc1OC [Ex. 164, (S)-5-(2,5-dimethylphenyl)-1-(1-(6-ethoxy-5-methoxypyridin-2-yl)-2-(methylsulfonyl)ethyl)-1H-benzo[d]imidazol-2(3H)-one]
+: PDE4 A1 inhibitory effect at 20 nM [1] | PDE4 D2 inhibitory effect at 20 nM [2] | PDE4 B1 inhibitory effect at 20 nM [3]
